Our source for the remaining activity values is publication PMC8286840, “Identifying SARS-CoV-2 antiviral compounds by screening for small molecule inhibitors of Nsp3 papain-like protease” (Biochemical Journal, 2021).

Each structure is given as a SMILES string. Counter-ions that a name gives are not always drawn. Like-named read-outs stand apart in the source and are kept apart here.

For assay [1], the target named is T1, SARS-CoV-2 PLpro (nsp3 1564–1878) (Severe acute respiratory syndrome coronavirus 2, UniProt P0DTD1). The experiment in a line: biochemical. Details: FRET-quenched peptide (Pro3) cleavage by PLpro, 10 min pre-incubation, slope over 20 min, normalised to no-compound control. As to conditions: low concentration screen, read-out: % of control remaining.
Assay [2] concerns the target T1, SARS-CoV-2 PLpro (nsp3 1564–1878). The experiment in a line: biochemical. Details: FRET-quenched peptide (Pro3) cleavage by PLpro, 10 min pre-incubation, slope over 20 min, normalised to no-compound control. The conditions noted are these: high concentration screen, read-out: % of control remaining.

With `COc1ccc2c(c1)[nH]c1c(C)nccc12` [Harmine], the remaining activity at 1.25 µM stood at 90.6% in assay [1] (Well no.=2092), 97.5% in assay [1] (Well no.=3681) and 96.2% in assay [1] (Well no.=8343). Moreover, the remaining activity at 3.75 µM is 88.2% in assay [2] (Well no.=2092), 97.5% in assay [2] (Well no.=3681) and 83.5% in assay [2] (Well no.=8343).

`O=C1NC(=O)c2c1c1c3ccccc3[nH]c1c1[nH]c3ccccc3c21` [Arcyriaflavin A, Synthetic]: the remaining activity at 1.25 µM in assay [1] (Well no.=2333) came to 105%. Moreover, in assay [2] (Well no.=2333), the remaining activity at 3.75 µM worked out at 102%.

For `CC(N)C(=O)OC(C)(C)Cc1ccc(Cl)cc1` (stereo not shown) [Alaproclate hydrochloride], in assay [1] (Well no.=208), the remaining activity at 1.25 µM was 102%. The remaining activity at 3.75 µM in assay [2] (Well no.=208) was found to be 102%.

As for `CC(=O)N[C@@H](CS)C(=O)O` [N-Acetyl-L-Cysteine], the remaining activity at 1.25 µM in assay [1] (Well no.=4) came to 98.3%. The remaining activity at 3.75 µM in assay [2] (Well no.=4) worked out at 97.6%.

As for `NC(N)=NCCCC(=O)O` [4-Guanidinobutanoic acid], the remaining activity at 1.25 µM in assay [1] (Well no.=7687) worked out at 108%. Moreover, the remaining activity at 3.75 µM in assay [2] (Well no.=7687) was found to be 106%.

For `C[C@]12CC[C@H](O)CC1=CC[C@@H]1[C@@H]2CC[C@]2(C)C(c3cccnc3)=CC[C@@H]12` [Abiraterone (CB-7598)], in assay [1] (Well no.=5047), the remaining activity at 1.25 µM is 101%. The remaining activity at 3.75 µM in assay [2] (Well no.=5047) was determined as 106%.

Take `COc1cc(CC(C)N)c(OC)cc1I` (racemic): in assay [1] (Well no.=686), the remaining activity at 1.25 µM worked out at 94.3%. Besides, in assay [2] (Well no.=686), the remaining activity at 3.75 µM came out at 92.3%.

`CC[C@H]1CN2CCc3cc(OC)c(OC)cc3[C@@H]2C[C@@H]1C[C@H]1NCCc2cc(OC)c(OC)cc21`: the remaining activity at 1.25 µM in assay [1] (Well no.=3424) was 92.3%. Also, the remaining activity at 3.75 µM in assay [2] (Well no.=3424) is 98%.

As for `CSC(=N)N` [S-Methylisothiourea hemisulfate], the remaining activity at 1.25 µM in assay [1] (Well no.=924) was 108%. In addition, in assay [2] (Well no.=924), the remaining activity at 3.75 µM worked out at 103%.

With `CCN1C[C@]2(C)CC[C@H](OC)[C@@]34C1[C@]1(OCO[C@@]15C[C@H](OC)[C@H]1C[C@]3(O)[C@@H]5[C@H]1OC)[C@@H](OC(C)=O)[C@H]24` [Deltaline], the remaining activity at 1.25 µM in assay [1] (Well no.=3111) worked out at 101%. For the same compound, the remaining activity at 3.75 µM in assay [2] (Well no.=3111) was determined as 103%.

For `CC(=O)N[C@@H](C)C(=O)O` [Ac-Ala-OH], in assay [1] (Well no.=8696), the remaining activity at 1.25 µM came to 96.5%. Besides, the remaining activity at 3.75 µM in assay [2] (Well no.=8696) was determined as 96.8%.

Regarding `O=c1[nH]c(=O)n([C@H]2C[C@H](O)[C@@H](CO)O2)cc1/C=C/Br` [Brivudine], the remaining activity at 1.25 µM in assay [1] (Well no.=8845) came out at 107%. The remaining activity at 3.75 µM in assay [2] (Well no.=8845) is 98.3%.

Turning to `Cc1cn([C@H]2C[C@H](O)[C@@H](CO)O2)c(=O)nc1N` [5-Methyl-2'-deoxycytidine], the remaining activity at 1.25 µM in assay [1] (Well no.=7493) was determined as 104%; in assay [1] (Well no.=7720), 98.8%. Also, the remaining activity at 3.75 µM was 105% in assay [2] (Well no.=7493) and 102% in assay [2] (Well no.=7720).

Take `CCCNC(C)C(=O)Nc1c(C)csc1C(=O)OC` (stereo not shown) [Articaine HCl]: the remaining activity at 1.25 µM in assay [1] (Well no.=5367) amounted to 95.8%. The remaining activity at 3.75 µM in assay [2] (Well no.=5367) is 94.3%.

For the compound `c1ccc2c(-c3cnn4cc(-c5ccc(N6CCNCC6)cc5)cnc34)ccnc2c1` [LDN193189], the remaining activity at 1.25 µM in assay [1] (Well no.=4956) is 99.3%. Further, in assay [2] (Well no.=4956), the remaining activity at 3.75 µM turned out to be 97.7%.

As for `CCCCCCCCCCC/C=C\CCCCCCC(=O)O` [8(Z)-Eicosenoic acid], the remaining activity at 1.25 µM in assay [1] (Well no.=4404) turned out to be 102%. Moreover, the remaining activity at 3.75 µM in assay [2] (Well no.=4404) turned out to be 102%.

For `CCCCCCCC(=O)O` [Octanoic acid], the remaining activity at 1.25 µM in assay [1] (Well no.=6591) was found to be 104%. Further, in assay [2] (Well no.=6591), the remaining activity at 3.75 µM came out at 110%.

Regarding `CC(N)=NCc1cccc(CN)c1` [1400W dihydrochloride], the remaining activity at 1.25 µM in assay [1] (Well no.=1434) worked out at 88%. For the same compound, the remaining activity at 3.75 µM in assay [2] (Well no.=1434) was 90.8%.

Regarding `O=C1c2c(O)cc(O)cc2O[C@H](c2ccc(O)c(O)c2)[C@H]1O` (racemic), in assay [1] (Well no.=1527), the remaining activity at 1.25 µM is 95.9%. In addition, the remaining activity at 3.75 µM in assay [2] (Well no.=1527) stood at 96.7%.

Consider `O=C(OCCN1CCOCC1)C1(c2ccccc2)CCCCC1` [PRE-084], for which, in assay [1] (Well no.=1000), the remaining activity at 1.25 µM turned out to be 98.1%. Besides, the remaining activity at 3.75 µM in assay [2] (Well no.=1000) was 100%.
